Columns and labels:
CBR = CBR binding with [^3H]Ro 15-1788, rat brain tissue; conditions: for affinity for the CBR (in words): [^3H]Ro 15-1788, rat brain tissue; for Ki: [^3H]Ro 15-1788 radioligand, rat brain tissue
[1] = Log D determined via HPLC; format: physicochemical
Rat glioma C6 cells = test: Steroid biosynthesis (pregnenolone) assay in C6 cells; format: cell-based; conditions: 40 μM
Procedure: All compounds were used at the same concentration (40 μM); at the end of the incubation period (2 h), the amount of pregnenolone was quantified by radio immunoassay (RIA). The values are the mean of at least three determinations.
Rat glioma C6 cells were cultured in Dulbecco's modified Eagle's medium supplemented with 10% FBS, 2 mM L-glutamine, 100 units/mL penicillin and 100 μg/mL streptomycin. Cultures were maintained in a humidified atmosphere of 5% CO2/95% air at 37° C.
C6 cells were seeded in 24-well plates at a density of ˜1×10^6 cells/well in a final volume of 1 ml. Prior to measurement of pregnenolone production the cells were washed three times with a simple salts medium consisting of 140 mM NaCl, 5 mM KCl, 1.8 mM CaCl2, 1 mM MgSO4, 10 mM glucose, 10 mM HEPES/NaOH, pH 7.4, plus 0.1% BSA. During experiments, cells were incubated with this simple salts medium in an air incubator at 37° C. […] At the end of the incubation period (2 h) the cell medium was retained and centrifuged at 1500 g for 10 min. The amount of pregnenolone secreted into the medium was quantified by radio immunoassay (RIA), using an antibody obtained from ICN Biochemical Inc., Calif., USA, under the conditions recommended by the supplier.

TSPO [2] = test: In vivo [^18F]DPA-714 baboon PET studies (baseline, blocking, displacement); set-up: species or system Papio hamadryas baboon
Procedure: This dual modality device has a fully-3D PET scanner with 24 crystal rings and a dual slice CT scanner in the same gantry. It yields a reconstructed PET spatial resolution of 6.3 mm full width at half maximum (FWHM) at the centre of the field of view. The baboon was initially anaesthetized with ketamine (8 mg/kg, im). Anaesthesia was maintained with the use of an iv infusion of ketamine (Parnell Laboratory, Australia) in saline at a dose rate of 0.2 mg ketamine/kg/min. The baboon also received MgSO4 (2 mL iv) given over half an hour plus atropine (1 mg im) plus maxalon (5 mg im). The head of the baboon was immobilised with plastic tape to minimise motion artifacts. A CT scan of the head was completed prior to radioligand injection. Acquisition of the PET data in list mode was commenced just prior to radioligand injection and continued for a period of 60 min. […] At the conclusion of each study the list mode data were sorted into a dynamic scan comprising 54 frames (20×30 s, 30×60 s and 4×300 s). […] The radioligand uptake was converted to units of percent injected dose per volume of brain tissue (% dose/mL) and plotted against time.
Decay corrected time activity curves representing the variation in ligand concentration vs. time were constructed from selected slices for regions of interest over the thalamus, cerebellum, striaturn, cortex, skull and whole brain. After the list-mode acquisition, a whole body PET-CT scan was performed, 2 minutes at each of the six bed positions, to determine other sites of radioligand uptake.

Sprague-Dawley rat = test: Single intravenous dose toxicity study in the rat; format: in vivo
Procedure: The study involved 2 groups of […] SPF Sprague-Dawley rats (each of 5 males and 5 females), 7 weeks old and weighing between 193.1 g and 215 g for males and between 160.6 g and 180.1 g for females on the day of randomisation. Animals were purchased from Charles River Laboratories France (Domaine des Oncins—69592 L'Arbresle Cedex, France).
Animals were weighed on the day of randomisation, on D7, D14 and D15 (day of necropsy).
General observations were performed on D1, 60 minutes±30 minutes after dosing, again between 3 and 4 hours post-dose and then once a day for 14 days. Functional and neurobehavioural tests were also assessed on D1, 60 minutes±30 minutes after dosing and then on D7 and D 14. Mortality was recorded twice a day for 14 days. All animals surviving at the end of the 14-day period were submitted to gross necropsy.

[3] = In-vivo stability of [^18F]DPA-714 in rat plasma (TLC); conditions: 2 h post tracer injection
TSPO [4] = biological target: T1, TSPO (Rattus norvegicus, UniProt P16257); test: Ex vivo biodistribution of [^18F]DPA-714 in QA lesioned rats; conditions: pre-injection 15 min before radioligand; PK 11195 5 mg/kg, DPA-714 and DPA-713 1 mg/kg
T1 construct: from tissue; host or cells: living rat; peripheral tissues and brain regions
Procedure: Adult male Wistar rats weighing 300-320 g (Janvier, Le Genest-St-Isle, France) were used for ex vivo experiments.
Quinolonic acid (QA) lesions: Rats were anesthetised with isoflurane (4%, 500 mL/min), placed on a stereotaxic apparatus (Stoelting, Phymep, Paris, France) and were maintained under isoflurane 2% (500 mL/min) during surgery. The skull was exposed and small holes were made with use of a dental drill. […] A cannula (gauge 25, Hamilton, Massy, France) was inserted and a solution of QA (300 nmol in 2 μL phosphate buffer, pH 7.4) was infused at a flow rate of 0.5 μL/min. The syringe was left in place for 4 minutes before being removed to avoid backflow of QA. The bone was filled in with wax and the scalp was then sutured.
For peripheral tissue, results were expressed as the ratio (% ID/g tissue)/(% ID/g blood)±SEM. For brain, results were expressed as the ratio (% ID/g cerebral region)/(% ID/g cerebellum)±SEM. Student t test was performed when the number of data was ≧5. Statistic significance was considered for p<0.05.

[5] = test system: peripheral benzodiazepine receptor; conditions: monkey occipital cortex, PET; cited from earlier work
[6] = biological target: T2, peripheral benzodiazepine receptor (PBR) (Rattus norvegicus, UniProt P16257); test: PET in rat model of HSV encephalitis; format: in vivo; conditions: olfactory and retrograde brain areas where HSV-1 accumulates
T2 construct: from tissue; host or cells: living rat (brain, PET and ex vivo biodistribution)
From the text: Male Wistar rats were intranasally inoculated with the herpes simplex virus type-1(10^7 PFU in 1001 PBS) or PBS (control). Within a week following inoculation, replicating virus migrated into the brain and induced neuroinflammation.

CCN(CC)C(=O)Cc1c(-c2ccc(OC)cc2)nn2c(C)cc(C)nc12 [DPA-713, N,N-Diethyl-2-[2-(4-methoxy-phenyl)-5,7-dimethylpyrazolo[1,5-a]pyrimidin-3-yl]-acetamide]
affinity for the CBR (in words) (CBR): negligible
Ki (CBR): > 10000 nM
chromatographic logD [1]: 2.44
effect on steroidogenesis (in words) (Rat glioma C6 cells; 2 h, C6 glioma rat cells): no effect

CCN(CC)C(=O)Cc1c(-c2ccc(OCCF)cc2)nn2c(C)cc(C)nc12 [DPA-714, N,N-Diethyl-2-{2-[4-(2-fluoro-ethoxy)-phenyl]-5,7-dimethyl-pyrazolo[1,5-a]pyrimidin-3-yl}-acetamide]
affinity for the CBR (in words) (CBR): negligible
Ki (CBR): > 10000 nM
chromatographic logD [1]: 2.44
pregnenolone synthesis above baseline (Rat glioma C6 cells; 2 h, C6 glioma rat cells, RIA): 80%
activity at stimulating neurosteroid synthesis compared with PK 11195 (Rat glioma C6 cells; same assay): twice more active
displacement of [^18F]DPA-714 from whole baboon brain (TSPO [2]; cold DPA-714 1 mg/kg at 20 minutes post injection): complete washout of the radioligand
displacement of [^18F]DPA-714 binding in peripheral regions (TSPO [2]; cold DPA-714 at 20 minutes after radioligand, data not shown): complete displacement
toxicity signs overall (Sprague-Dawley rat; administered once i.v. at 5 mL/kg, batch No. 140306): did not induce any toxicity sign
LD50 (Sprague-Dawley rat; rat, in vivo, iv): higher than 5 mL/kg

CCN(CC)C(=O)Cc1c(-c2ccc(OCC[18F])cc2)nn2c(C)cc(C)nc12 [[^18F]DPA-714]
uptake in the baboon skull (TSPO [2]; baseline PET study): No uptake
blood brain barrier penetration / accumulation in the brain (TSPO [2]; baseline PET study, 100 MBq i.v., baboon): capable of penetrating the blood brain barrier with considerable accumulation in the brain
time to maximum uptake in whole baboon brain (TSPO [2]; baseline study, time activity curve): within ten minutes
whole body uptake in the heart, adrenals and salivary glands (TSPO [2]; whole body PET after brain imaging): high uptake
radioactivity in rat plasma consisting of the parent compound [3]: 78±1%

CCC(C)N(C)C(=O)c1cc2ccccc2c(-c2ccccc2Cl)n1 (stereo not drawn) [PK 11195]
affinity for the CBR (in words) (CBR): negligible
Ki (CBR): > 10000 nM
chromatographic logD [1]: 3.35
inhibition of [^18F]DPA-714 uptake in peripheral tissues by pre-treatment (TSPO [4]): significant inhibition of radioligand uptake in the heart, bone and liver but not in the adrenals and muscle

COc1ccc(O[11CH3])c(CN(C(C)=O)c2cc(F)ccc2Oc2ccccc2)c1 [[^11C]DAA1106]
binding compared with [^11C](R)-PK 11195 [5]: four times greater

CCC(C)N([11CH3])C(=O)c1cc2ccccc2c(-c2ccccc2Cl)n1 (stereo not drawn) [[^11C]PK11195]
uptake in HSE rats versus control (in words) [6]: not significantly increased

Source: patent US20090311176A1, “2-Arylpyrazolo[L,5-Alpha] Pyrimidin-3-YL Acetamide Derivatives as Ligands for Translocator Protein (18 Kda)” (The University of Sydney, priority 2006, published 2009)
